Experimental data as given in ChEMBL document CHEMBL1149382 (J Med Chem, 2006).
In brackets after ≈: the same amount, converted by molar mass. Activity calls are given as the source filed them. The rule behind the calls is not given here.

What was measured:
[1] = biological target: lanosterol synthase / oxidosqualene cyclase (Homo sapiens) (UniProt P48449); test: Inhibitory activity against oxidosqualene cyclase
[2] = test system: Trypanosoma cruzi; test: Antiprotozoal activity against Trypanosoma cruzi epimastigotes; format: functional, organism-based
[3] = test system: Trypanosoma cruzi; test: Ability to block ergosterol biosynthesis in Trypanosoma cruzi; format: functional, organism-based
[4] = biological target: T1, Farnesyl diphosphate synthase (Trypanosoma cruzi) (UniProt Q8WS26); test: Inhibitory activity against recombinant farnesyl diphosphate synthase at 50 uM
T1 sequence (whole entry): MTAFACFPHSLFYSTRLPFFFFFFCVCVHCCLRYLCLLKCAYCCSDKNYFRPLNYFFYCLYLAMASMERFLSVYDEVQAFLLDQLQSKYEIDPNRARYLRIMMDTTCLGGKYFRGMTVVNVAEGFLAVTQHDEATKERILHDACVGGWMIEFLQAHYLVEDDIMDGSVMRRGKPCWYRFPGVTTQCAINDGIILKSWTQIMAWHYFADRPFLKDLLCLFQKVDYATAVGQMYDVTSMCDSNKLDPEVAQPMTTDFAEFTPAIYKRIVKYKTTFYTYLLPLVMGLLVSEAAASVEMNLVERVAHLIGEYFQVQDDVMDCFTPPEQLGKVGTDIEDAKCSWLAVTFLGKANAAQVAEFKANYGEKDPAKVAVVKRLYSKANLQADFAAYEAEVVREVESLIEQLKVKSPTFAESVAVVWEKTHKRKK

[5] = test system: Trypanosoma cruzi; test: Antiprotozoal activity against Trypanosoma cruzi amastigotes; format: functional, organism-based
[6] = test system: Trypanosoma cruzi; test: Disruption of calcium homeostasis in Trypanosoma cruzi; format: functional, organism-based

lanosterol synthase / oxidosqualene cyclase (Homo sapiens), sequence (P48449 whole entry, looked up): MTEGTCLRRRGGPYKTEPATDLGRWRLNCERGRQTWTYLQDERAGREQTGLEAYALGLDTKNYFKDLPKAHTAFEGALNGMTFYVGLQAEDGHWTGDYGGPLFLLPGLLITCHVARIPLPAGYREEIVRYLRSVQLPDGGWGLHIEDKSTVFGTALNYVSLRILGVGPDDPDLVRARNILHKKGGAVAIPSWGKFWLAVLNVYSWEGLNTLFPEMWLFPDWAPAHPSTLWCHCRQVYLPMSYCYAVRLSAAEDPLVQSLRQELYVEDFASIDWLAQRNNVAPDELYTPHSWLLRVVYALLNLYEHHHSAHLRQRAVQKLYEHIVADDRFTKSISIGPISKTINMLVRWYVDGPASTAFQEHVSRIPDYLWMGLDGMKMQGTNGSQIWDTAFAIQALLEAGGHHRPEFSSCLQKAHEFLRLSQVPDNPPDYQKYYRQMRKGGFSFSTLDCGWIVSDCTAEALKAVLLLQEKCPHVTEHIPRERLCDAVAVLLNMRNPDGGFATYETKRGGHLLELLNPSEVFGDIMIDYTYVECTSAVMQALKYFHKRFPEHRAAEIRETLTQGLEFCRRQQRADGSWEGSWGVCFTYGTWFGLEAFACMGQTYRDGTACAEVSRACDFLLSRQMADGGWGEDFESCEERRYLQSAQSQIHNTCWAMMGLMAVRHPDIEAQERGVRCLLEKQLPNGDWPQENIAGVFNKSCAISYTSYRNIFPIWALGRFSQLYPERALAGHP

CCCCc1oc2ccccc2c1C(=O)c1cc(I)c(OCCN(CC)CC)c(I)c1 [AMIODARONE]
IC50 [1]: Active
MIC [2]: 20 µM (≈ 12.9 µg/mL)
Activity [3]: Active
inhibition [4]: inactive
MIC [5]: 8 µM (≈ 5.16 µg/mL)
Activity [6]: Active

CC[C@@H]([C@H](C)O)n1ncn(-c2ccc(N3CCN(c4ccc(OC[C@@H]5CO[C@@](Cn6cncn6)(c6ccc(F)cc6F)C5)cc4)CC3)cc2)c1=O [POSACONAZOLE]
IC50 [2]: 14 nM
MIC [2]: 0.02 µM (≈ 0.014 µg/mL)
IC50 [5]: 0.25 nM
MIC [5]: 0.003 µM (≈ 0.0021 µg/mL)
Activity [6]: Active
